Measurements as given in patent US8530421B2, “Isolated polypeptides used for treatment of inflammatory diseases and inhibiting cancer metastasis” (Supadelixir Inc., priority 2009, dated 2013).

Tested on: IgE-mediated immediate hypersensitivity reaction-induced mice
Test: IgE-mediated immediate hypersensitivity reaction, ear thickness
Type: in vivo, Balb/c mice
Details: 100 μg tail vein, then 100 μg intraperitoneally daily from third day; DNFB antigen; 15 days
Description: Anti-allergic activity of the polypeptide according to the present invention was investigated. Balb/c mice (about 6 weeks old) were sensitized by injecting IgE antibody (5 μg) through the tail vain thereof. After 24 hours, the protein solution (100 μl) prepared by dissolving the peptide fragment of SEQ ID NO: 13 (100 μg) in PBS (100 μl) was injected through the tail vain of the sensitized mice. A 0.15% DNFB solution [2,4-d]nitrofluorobenzene in aceton: olive oil (4:1)] as an antigen was applied on each ear of the mice so as to induce IgE-mediated immediate hypersensitivity. In case of the negative control mice, only PBS (100 μl) was injected without treating a 0.15% DNFB solution. In case of the positive control mice, PBS (100 μl) was injected and then a 0.15% DNFB solution was treated. The changes in ear thickness were measured with a digital caliper every hour for 12 hours. Every day from the third day, the peptide fragment of SEQ ID NO: 13 (100 μg) was intraperitoneally injected to the test group mice, while only PBS was intraperitoneally injected to the control group mice. The changes in ear thickness were measured for 15 days.
FIG. 12 is the graph obtained by comparing the ear thickness changes of the test group mice and the positive control mice (increased by treating a 0.15% DNFB solution) with those of the negative control.

“SEQ ID NO: 13: Leu-Xaa-Asp with Xaa Ala; CD99L2 fragment 121~123, PBDX(or XG) fragment 27~29 (LAD; listed as Homo sapiens)” was tested, and the “ear thickness increments relative to the positive control group” value was “remarkably decreased”.
